“And” between values parts separate entries of the source, which are not always exact repeats. Equal values may be shown once.
Assays:
LNCaP cells = test: PSMA-mediated internalization into LNCaP cells; assay type: cell-based; settings: 1 h, 37°C, n = 3, as percentage of reference [125I]IBA-KuE, mean ± SD
Procedure: (§1) Competitive binding studies were carried out in analogy to a previously reported procedure. As a modification the non-radiolabeled standard competitor (((S)-1-carboxy-5-(4-(iodo)benzamido)pentyl)carbamoyl)-L-glutamic acid (IBA-KuE) was applied in increasing concentrations (10^-5 - 10^-11 M/well, n = 3 each) whereas the novel PSMA-binding compounds of interest were applied as ^99mTc-labeled radioligands (0.2 nM/well). In this inversed experimental approach, higher values correspond to higher affinities and are referred to as inverse IC50. Poly-L-lysine coated 24-well plates were used (n = 3). Data are given as mean ± SD. To determine the cellular uptake of the ^99mTc-labeled PSMA ligands into LNCaP cells by means of PSMA-mediated internalization at 1 h, a previously reported protocol was applied with assay concentrations of 1.0 nM and 0.2 nM for ^99mTc-labeled PSMA ligands and the reference compound [^125I]IBA-KuE, respectively. Data are corrected for non-specific binding and normalized to the specific internalization of the reference. Results are given as mean ± SD.

[1] = target: T1, human serum albumin (HSA) (Homo sapiens, UniProt P02768); test: HSA binding by high performance affinity chromatography (HPAC); assay type: in vitro ADME; settings: uncomplexed compounds, n = 1
T1 construct: purchased Daicel, Tokyo, Japan H13H-2433
Procedure: HSA binding of the uncomplexed PSMA ligands was determined according to a previously published procedure via HPLC (Valko, K.; Nunhuck, S.; Bevan, C.; Abraham, M. H.; Reynolds, D. P., Fast gradient HPLC method to determine compounds binding to human serum albumin. Relationships with octanol/water and immobilized artificial membrane lipophilicity. J Pharm Sci. 2003, 92, 2236-2248). A Chiralpak HSA column (50 × 3 mm, 5 µm, H13H-2433, Daicel, Tokyo, Japan) was used at a constant flow rate of 0.5 mL/min at rt. Mobile phase A was a freshly prepared 50 mM aqueous solution of NH4OAc (pH 6.9) and mobile phase B was isopropanol (HPLC grade, VWR). The applied gradient for all experiments was 100% A (0 to 3 min), followed by 80% A (3 to 40 min). Prior to the experiment, the column was calibrated using nine reference substances with a HSA binding, known from literature, in the range of 13 to 99% (Valko, K.; Nunhuck, S.; Bevan, C.; Abraham, M. H.; Reynolds, D. P., J Pharm Sci. 2003, 92, 2236-2248; Yamazaki, K.; Kanaoka, M., Computational prediction of the plasma protein-binding percent of diverse pharmaceutical compounds. J Pharm Sci. 2004, 93, 1480-1494). All substances, including the examined PSMA ligands, were dissolved in a 1:1 mixture (v/v) of isopropanol and a 50 mM aqueous solution of NH4OAc (pH 6.9) with a final concentration of 0.5 mg/mL. Non-linear regression was established with the OriginPro 2016G software (Northampton, United States).

[2] = test system: LNCaP tumor-bearing CB17-SCID mice; test: Biodistribution study in LNCaP tumor-bearing mice; assay type: in vivo; settings: 6 h p.i.; for uptake in % iD/g adrenals / uptake in % iD/g blood / uptake in % iD/g bone / uptake in % iD/g heart / uptake in % iD/g intestine / uptake in % iD/g kidney / uptake in % iD/g liver / uptake in % iD/g lung / uptake in % iD/g muscle / uptake in % iD/g pancreas / uptake in % iD/g parotid gland / uptake in % iD/g spleen / uptake in % iD/g stomach / uptake in % iD/g submandibular gland / uptake in % iD/g tumor: male LNCaP tumor-bearing CB17-SCID mice, mean; for uptake in % iD/g adrenals / uptake in % iD/g blood / uptake in % iD/g bone / uptake in % iD/g heart / uptake in % iD/g intestine / uptake in % iD/g kidney / uptake in % iD/g liver / uptake in % iD/g lung / uptake in % iD/g muscle / uptake in % iD/g pancreas / uptake in % iD/g parotid gland / uptake in % iD/g spleen / uptake in % iD/g stomach / uptake in % iD/g submandibular gland / uptake in % iD/g tumor / tumor-to-background ratio adrenals / tumor-to-background ratio blood / tumor-to-background ratio bone / tumor-to-background ratio heart / tumor-to-background ratio intestine / tumor-to-background ratio kidney / tumor-to-background ratio liver / tumor-to-background ratio lung / tumor-to-background ratio muscle / tumor-to-background ratio pancreas / tumor-to-background ratio parotid gland / tumor-to-background ratio spleen / tumor-to-background ratio stomach / tumor-to-background ratio submandibular gland: n = 4-5; for tumor-to-background ratio adrenals / tumor-to-background ratio blood / tumor-to-background ratio bone / tumor-to-background ratio heart / tumor-to-background ratio intestine / tumor-to-background ratio kidney / tumor-to-background ratio liver / tumor-to-background ratio lung / tumor-to-background ratio muscle / tumor-to-background ratio pancreas / tumor-to-background ratio parotid gland / tumor-to-background ratio spleen / tumor-to-background ratio stomach / tumor-to-background ratio submandibular gland: mean of ratios of individual animals; for Blood activity levels increased, as compared to [^99mTc]Tc-N4-PSMA-12: relative to [^99mTc]Tc-N4-PSMA-12
Procedure: All animal experiments were conducted in accordance with general animal welfare regulations in Germany (German animal protection act, in the edition of the announcement, dated May 18th, 2006, as amended by Article 280 of June 19th 2020, approval no. ROB-55.2-1-2532.Vet_02-18-109 by the General Administration of Upper Bavaria) and the institutional guidelines for the care and use of animals. Male CB17-SCID mice were purchased from Charles River (Sulzfeld, Germany) and arrived at the in-house animal facility to acclimate at least 1 week before the start of the experiment. Tumor xenografts were established by subcutaneous inoculation of LNCaP cells (approx. 2 × 10^7 cells in 200 µL of a 1:1 mixture of Cultrex BME (R&D Systems, Minneapolis, United States) and DMEM/Ham's F-12) onto the right shoulder of 6-8 weeks old male CB17-SCID mice. The animals were used for experiments when tumors had grown to a size of 5-10 mm in diameter. Criteria for the exclusion of animals from the experiment were weight loss higher than 20%, tumor size above 1.5 cm^3, ulceration of the tumor, respiratory distress or change of behavior. […] Neither randomisation nor blinding was applied in the allocation of the experiments. Quarterly health monitoring was performed according to the FELASA recommendations.
Biodistribution Studies. The ^99mTc-labeled radioligands (2.7 ± 0.7 MBq, 82 ± 20 pmol) were injected into a lateral tail vein of LNCaP-tumor bearing mice (n = 4-5) under isoflurane anesthesia. Animals were sacrificed at 6 h post injection (p.i.) by carbon dioxide inhalation and blood withdrawal via cardiac puncture. Blood and tissues of interest were collected, weighed and the activity measured in a γ-counter. Radioligand uptake is given in percent of the injected dose per gram of tissue (% ID/g) and results are presented as mean ± SD.
In line with the above, the biodistribution study of [^99mTc]Tc-N4-PSMA-21 was carried out with n = 5 animals ("data set I"). […] Kidney uptake of mouse #3 (36.17 %ID/g) exceeded the value obtained from the other four animals (4.58 ± 1.44 %ID/g, mean ± SD) 7.9-fold or by more than 20 standard deviations. In addition, tumor uptake of mouse #3 (21.92 %ID/g) exceeded the value obtained from the other four animals (11.02 ± 2.22 %ID/g, mean ± SD) 2.0-fold or by more than 4 standard deviations Due to the uncertainty whether these huge deviations arise from an experimental error or might be related to strongly deviating metabolic processes e.g. abnormal kidney function in mouse #3, the study primarily presents and discusses the data set based on the other four animals (n = 4, "data set II"). A thorough evaluation and comparison was, however, also carried out including mouse #3.

PSMA = target: T2, PSMA (Homo sapiens, UniProt Q04609); test: Competitive binding study, inverse IC50 (99mTc-radioligand versus increasing IBA-KuE); settings: inverse IC50: IBA-KuE competes against 99mTc-radioligand (0.2 nM/well); higher values = higher affinity; 1 h, 4°C, n = 3, mean ± SD; read-out: IC50, inv.
T2 construct: endogenous in cells; printed for the internalization assay of the same paragraph
Procedure: as §1

[3] = Lipophilicity (logD7.4), shake-flask method; assay type: physicochemical; settings: n-octanol/PBS (pH 7.4), n = 8, mean ± SD
Procedure: The lipophilicity of ^99mTc-labeled PSMA ligands, expressed as distribution coefficient (logD7.4), was determined using the shake-flask method. A solution of approximately 1 MBq of radioligand in 1 mL of a 1:1 mixture of PBS (pH = 7.4) and n-octanol (n = 8) was vortexed vigorously for 3 min. After centrifugation at 9000 rpm for 5 min aliquots of both phases (200 µL n-octanol, 50 µL PBS) were collected and the activity was quantified in a γ-counter. logD7.4 values were calculated as decadic logarithm of the activity concentration ratio between the n-octanol phase and the aqueous phase. Data are given as mean ± standard deviation (SD). Binding to human plasma was determined by incubation of radioligands in human plasma (2 nM concentration, 37 °C for 30 min) and subsequent ultrafiltration (250 µL aliquots, 3200 rpm, 40 min) in Centrifree® ultrafiltration devices (Merck Millipore, Cork, Ireland). The fraction bound to human plasma proteins was calculated as the ratio of unfiltered activity and the total activity in the ultrafiltration device. Measurements were performed in three independent experiments, each with two replicates (n = 6, data are given as mean ± SD). All values were corrected for non-specific binding (control experiments in PBS).

[4] = single outlier animal (mouse #3), excluded from data set II

T1 sequence (P02768 25-609): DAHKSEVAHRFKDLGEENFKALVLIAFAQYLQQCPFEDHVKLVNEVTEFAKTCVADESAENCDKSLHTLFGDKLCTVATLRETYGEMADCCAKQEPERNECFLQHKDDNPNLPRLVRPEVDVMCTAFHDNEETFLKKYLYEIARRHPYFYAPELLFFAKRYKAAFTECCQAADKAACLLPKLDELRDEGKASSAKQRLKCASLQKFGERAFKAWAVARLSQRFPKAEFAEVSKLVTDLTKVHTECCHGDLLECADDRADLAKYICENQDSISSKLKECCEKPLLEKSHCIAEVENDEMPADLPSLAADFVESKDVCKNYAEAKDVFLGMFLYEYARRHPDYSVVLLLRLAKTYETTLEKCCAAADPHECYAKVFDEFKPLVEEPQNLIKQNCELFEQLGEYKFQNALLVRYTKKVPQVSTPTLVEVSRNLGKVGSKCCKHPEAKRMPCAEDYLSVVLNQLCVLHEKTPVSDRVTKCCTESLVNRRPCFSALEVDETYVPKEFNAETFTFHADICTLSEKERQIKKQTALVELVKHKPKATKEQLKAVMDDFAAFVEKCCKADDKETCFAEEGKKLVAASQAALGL
T2 sequence (Q04609 whole entry): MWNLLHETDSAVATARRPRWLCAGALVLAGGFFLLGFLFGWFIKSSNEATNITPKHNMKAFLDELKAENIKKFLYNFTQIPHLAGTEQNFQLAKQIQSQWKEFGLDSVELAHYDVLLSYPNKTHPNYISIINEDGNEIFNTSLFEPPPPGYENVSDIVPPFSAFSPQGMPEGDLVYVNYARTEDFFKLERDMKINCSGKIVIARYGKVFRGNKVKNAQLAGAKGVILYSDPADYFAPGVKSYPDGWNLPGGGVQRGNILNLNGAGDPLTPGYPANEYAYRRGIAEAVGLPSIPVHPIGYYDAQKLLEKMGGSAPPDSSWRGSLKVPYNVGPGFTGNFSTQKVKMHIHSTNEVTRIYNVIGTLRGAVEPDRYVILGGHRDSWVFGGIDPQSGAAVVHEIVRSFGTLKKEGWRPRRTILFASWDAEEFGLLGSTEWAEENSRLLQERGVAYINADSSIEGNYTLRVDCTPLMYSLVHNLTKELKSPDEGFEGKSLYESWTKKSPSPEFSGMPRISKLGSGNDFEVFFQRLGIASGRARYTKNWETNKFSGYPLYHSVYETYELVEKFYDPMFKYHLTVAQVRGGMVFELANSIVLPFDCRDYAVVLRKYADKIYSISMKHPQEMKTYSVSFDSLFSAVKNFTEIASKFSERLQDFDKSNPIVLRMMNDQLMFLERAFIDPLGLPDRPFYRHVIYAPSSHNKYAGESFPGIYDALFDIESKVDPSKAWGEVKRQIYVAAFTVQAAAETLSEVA

Compound	internalization (% IBA-KuE) (LNCaP cells)	HSA-binding (HPAC) (%) [1]	uptake in % iD/g adrenals [2]	uptake in % iD/g blood [2]	uptake in % iD/g bone [2]	uptake in % iD/g heart [2]	uptake in % iD/g intestine [2]	uptake in % iD/g kidney [2]	uptake in % iD/g liver [2]	uptake in % iD/g lung [2]	uptake in % iD/g muscle [2]	uptake in % iD/g pancreas [2]	uptake in % iD/g parotid gland [2]	uptake in % iD/g spleen [2]	uptake in % iD/g stomach [2]	uptake in % iD/g submandibular gland [2]	uptake in % iD/g tumor [2]	tumor-to-background ratio adrenals [2]	tumor-to-background ratio blood [2]	tumor-to-background ratio bone [2]	other results
CC(C)(C)[Si](O)(c1ccc(C(=O)NC[C@@H](NC(=O)[C@@H](Cc2ccc(N)cc2)NC(=O)C(CNCCN)CNCCN)C(=O)N[C@H](CCCCNC(=O)CCC(=O)NCCC[C@@H](NC(=O)CC[C@H](NC(=O)N[C@@H](CCC(=O)O)C(=O)O)C(=O)O)C(=O)O)C(=O)O)cc1)C(C)(C)C.[O]=[99Tc+]=[O] [[^99mTc]Tc-N4-PSMA-21]	180 ± 4%	57.3%	0.5759 % ID/g	0.1074 % ID/g	0.0828 % ID/g	0.0568 % ID/g	1.1034 % ID/g	4.58 ± 1.44 % ID/g and 4.6 ± 1.4 % ID/g and 4.5811 % ID/g	0.5752 % ID/g	0.1250 % ID/g	0.0153 % ID/g	0.0335 % ID/g	0.1105 % ID/g	1.3064 % ID/g	0.1458 % ID/g	0.3009 % ID/g	11.02 ± 2.22 % ID/g and 11.0155 % ID/g	19.85	125.55	207.38	tumor-to-background ratio heart [2]: 201.50; tumor-to-background ratio intestine [2]: 52.29; tumor-to-background ratio kidney [2]: 2.57; tumor-to-background ratio liver [2]: 23.75; tumor-to-background ratio lung [2]: 99.35; tumor-to-background ratio muscle [2]: 736.44; tumor-to-background ratio pancreas [2]: 350.74; tumor-to-background ratio parotid gland [2]: 101.59; tumor-to-background ratio spleen [2]: 10.32; tumor-to-background ratio stomach [2]: 114.49; tumor-to-background ratio submandibular gland [2]: 50.80; Blood activity levels increased, as compared to [^99mTc]Tc-N4-PSMA-12 [2]: 5.4 fold; Kidney uptake of mouse #3 [2, 4]: 36.17 %ID/g; tumor uptake of mouse #3 [2, 4]: 21.92 %ID/g; inverse IC50 (PSMA): 0.0111 ± 0.00142 µM; logD7.4 [3]: -3.13 ± 0.05
CC(C)(C)[Si](O)(c1ccc(C(=O)NC[C@@H](NC(=O)[C@@H](Cc2ccccc2)NC(=O)C(CNCCN)CNCCN)C(=O)N[C@H](CCCCNC(=O)CCC(=O)NCCC[C@@H](NC(=O)CC[C@H](NC(=O)N[C@@H](CCC(=O)O)C(=O)O)C(=O)O)C(=O)O)C(=O)O)cc1)C(C)(C)C.[O]=[99Tc+]=[O] [[^99mTc]Tc-N4-PSMA-13]	164 ± 15%	89.9%	0.5170 % ID/g	0.0320 % ID/g	0.0862 % ID/g	0.0456 % ID/g	0.2661 % ID/g	6.6 ± 4.8 % ID/g and 6.5974 % ID/g	0.2618 % ID/g	0.1108 % ID/g	0.0127 % ID/g	0.0270 % ID/g	0.1056 % ID/g	0.6314 % ID/g	0.1348 % ID/g	0.3069 % ID/g	12.5347 % ID/g	24.50	409.29	142.94	tumor-to-background ratio heart [2]: 276.38; tumor-to-background ratio intestine [2]: 64.62; tumor-to-background ratio kidney [2]: 2.45; tumor-to-background ratio liver [2]: 50.17; tumor-to-background ratio lung [2]: 113.30; tumor-to-background ratio muscle [2]: 1013.12; tumor-to-background ratio pancreas [2]: 496.73; tumor-to-background ratio parotid gland [2]: 119.35; tumor-to-background ratio spleen [2]: 20.57; tumor-to-background ratio stomach [2]: 101.82; tumor-to-background ratio submandibular gland [2]: 41.60; Blood activity levels increased, as compared to [^99mTc]Tc-N4-PSMA-12 [2]: 1.6 fold; inverse IC50 (PSMA): 0.00998 ± 0.00099 µM; logD7.4 [3]: -2.78 ± 0.05
